Values of other authors as cited in patent publication US20120028902A1, “PEPTIDE AVAILABILITY” (priority 2008, published 2012).

- Further increase of plasma IPP AUC when consumed with the meal (yoghurt drink consumed with breakfast, versus fasted state): 30%
- Increase of plasma IPP level (area under the concentration vs. time curve) compared to a control drink (yoghurt drink drunk in overnight fasted state 30 min prior to breakfast): more than two-fold
Compound: CC[C@H](C)[C@H](N)C(=O)N1CCC[C@H]1C(=O)N1CCC[C@H]1C(=O)O [IPP, isoleucine-proline-proline]
